Data published in the Kinase Knowledgebase extract (Sharma et al. 2016).
Blank lines part the entries; values can stand above or below the compound they belong to.

Experiments:
MAPK14 (human) = MAPK14 (human) (UniProt Q16539); assay: In vitro Inhibition of TNF-alpha Production in PBMC Cells
MAPK14 (BALB/cJ mice) = assay: In vivo Inhibition of LPS-induced TNF-alpha Production; details: dose or concentration not given here

MAPK14 (human), sequence (Q16539 whole entry, looked up): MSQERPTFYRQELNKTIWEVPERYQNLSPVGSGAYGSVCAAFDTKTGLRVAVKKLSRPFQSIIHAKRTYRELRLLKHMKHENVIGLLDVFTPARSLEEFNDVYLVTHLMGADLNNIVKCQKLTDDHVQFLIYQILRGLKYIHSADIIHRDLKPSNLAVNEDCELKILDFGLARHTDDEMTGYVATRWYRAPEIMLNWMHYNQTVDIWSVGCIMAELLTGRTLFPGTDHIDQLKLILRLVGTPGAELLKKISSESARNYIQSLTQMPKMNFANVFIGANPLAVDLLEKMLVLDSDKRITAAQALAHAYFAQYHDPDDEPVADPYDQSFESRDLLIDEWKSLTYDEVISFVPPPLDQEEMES

SMILES: C[C@H](Nc1nccc(-c2c[nH]cc2-c2ccc(F)cc2)n1)c1ccccc1
IC50 (MAPK14 (human)): 3 nM

SMILES: COC(=O)c1c(-c2ccc(F)cc2)c(-c2ccncc2)c(NCCN2CCNCC2)n1C
inhibition (MAPK14 (BALB/cJ mice)): 77%

SMILES: COC(=O)c1c(-c2cccc(F)c2)c(-c2ccncc2)c(N2CCNCC2)n1C
inhibition (MAPK14 (BALB/cJ mice)): 49%
IC50 (MAPK14 (human)): 69 nM

SMILES: Cn1cc(-c2ccncc2)c(-c2ccc(F)cc2)c1-c1nnco1
IC50 (MAPK14 (human)): 18 nM

SMILES: Cn1c(C(=O)c2ccccc2)c(-c2ccc(F)cc2)c(-c2ccncc2)c1N1CCNCC1
IC50 (MAPK14 (human)): 660 nM

SMILES: COC(=O)c1c(-c2ccc(F)cc2)c(-c2ccncc2)c(N2CCC(NC(=O)OC(C)(C)C)C2)n1C (configuration not stated)
IC50 (MAPK14 (human)): 1660 nM

SMILES: COc1ccc(CNCc2[nH]cc(-c3ccncc3)c2-c2ccc(F)cc2)cc1
inhibition (MAPK14 (BALB/cJ mice)): -30%
IC50 (MAPK14 (human)): 190 nM

SMILES: N#Cc1[nH]cc(-c2ccncc2)c1-c1ccc(F)cc1
IC50 (MAPK14 (human)): 47 nM

SMILES: COC(=O)c1c(-c2ccc(F)cc2)c(-c2ccncc2)cn1CCN(C)C
inhibition (MAPK14 (BALB/cJ mice)): -32%

SMILES: Cn1cc(-c2ccncc2)c(-c2ccc(F)cc2)c1C(=O)NCC(=O)c1ccccc1
IC50 (MAPK14 (human)): 157 nM

SMILES: COC(=O)c1c(-c2ccc(F)cc2)c(-c2ccncc2)c(NC2CCN(Cc3ccccc3)CC2)n1C
IC50 (MAPK14 (human)): 1310 nM

SMILES: CCCCNCc1c(-c2ccncc2)c(-c2ccc(F)cc2)cn1C
IC50 (MAPK14 (human)): 1080 nM

SMILES: COC(=O)c1c(-c2ccc(F)cc2)c(-c2ccncc2)c(NCCCN2CCOCC2)n1C
inhibition (MAPK14 (BALB/cJ mice)): 64%

SMILES: COC(=O)C1CCn2c(I)c(-c3ccncc3)c(-c3ccc(F)cc3)c2C1=O (configuration not stated)
inhibition (MAPK14 (BALB/cJ mice)): 15%

SMILES: COC(=O)c1c(-c2ccc(F)cc2)c(-c2ccncc2)c(Nc2ccc3c(c2)N(C(C)=O)CC3)n1C
IC50 (MAPK14 (human)): 650 nM

SMILES: OCCNCc1[nH]cc(-c2ccc(F)cc2)c1-c1ccncc1
IC50 (MAPK14 (human)): 148 nM

SMILES: Fc1ccc(-c2c[nH]c(CNCc3ccccc3)c2-c2ccncc2)cc1
IC50 (MAPK14 (human)): 6 nM

SMILES: COC(=O)c1c(-c2ccc(F)cc2)c(-c2ccncc2)c(N2CCN(C(=O)OC(C)(C)C)CC2)n1C
IC50 (MAPK14 (human)): 4260 nM

SMILES: O=C1CCCn2cc(-c3ccncc3)c(-c3ccc(F)cc3)c21
IC50 (MAPK14 (human)): 150 nM

SMILES: COC(=O)c1c(-c2cccc(F)c2)c(-c2ccncc2)cn1C
IC50 (MAPK14 (human)): 64 nM

SMILES: CCCc1c(-c2ccnc(N[C@@H](C)c3ccccc3)n2)c(-c2ccc(F)cc2)cn1C(=O)OC(C)(C)C
inhibition (MAPK14 (BALB/cJ mice)): -79%

SMILES: O=C1CCn2cc(-c3ccncc3)c(-c3ccc(F)cc3)c21
IC50 (MAPK14 (human)): 138 nM

SMILES: COC(=O)c1c(-c2ccc(F)cc2)c(-c2ccncc2)cn1CCN1CCOCC1
IC50 (MAPK14 (human)): 10000 nM

SMILES: COC(=O)CCCn1c(NCCN2CCOCC2)c(-c2ccncc2)c(-c2ccc(F)cc2)c1C(=O)OC
IC50 (MAPK14 (human)): 29 nM

SMILES: COC(=O)c1c(-c2ccc(F)cc2)c(-c2ccncc2)c(-c2ccncc2)n1C
inhibition (MAPK14 (BALB/cJ mice)): 51%

SMILES: Cn1c(C#N)c(-c2ccc(F)cc2)c(-c2ccncc2)c1NCCN1CCOCC1
IC50 (MAPK14 (human)): 351 nM

SMILES: O=C1OCCn2cc(-c3ccncc3)c(-c3ccc(F)cc3)c21
IC50 (MAPK14 (human)): 160 nM

SMILES: COC(=O)c1c(-c2ccc(F)cc2)c(-c2ccncc2)c(N2CCN(CC3CCCCC3)CC2)n1C
IC50 (MAPK14 (human)): 573 nM

SMILES: Cn1c(CO)c(-c2ccc(F)cc2)c(-c2ccncc2)c1N1CCN(C(=O)OC(C)(C)C)CC1
inhibition (MAPK14 (BALB/cJ mice)): 83%

The next lines start with results.

IC50 (MAPK14 (human)): 5860 nM
SMILES: COC(=O)c1c(-c2ccc(F)cc2)c(-c2ccncc2)c(N2CCN(S(C)(=O)=O)CC2)n1C
inhibition (MAPK14 (BALB/cJ mice)): -29%

IC50 (MAPK14 (human)): 166 nM
SMILES: COC(=O)c1c(-c2ccc(F)cc2)c(-c2ccncc2)c(N2CCc3ccccc3C2)n1C
inhibition (MAPK14 (BALB/cJ mice)): 32%

IC50 (MAPK14 (human)): 5840 nM
SMILES: CON(C)C(=O)c1c(-c2ccc(F)cc2)c(-c2ccncc2)cn1C

IC50 (MAPK14 (human)): 1980 nM
SMILES: COC(=O)c1c(-c2ccc(F)cc2)c(-c2ccncc2)c(N2CCN(C(C)C)CC2)n1C

IC50 (MAPK14 (human)): 23 nM
SMILES: COC(=O)c1c(-c2ccc(F)cc2)c(-c2ccncc2)cn1C(=O)OC
inhibition (MAPK14 (BALB/cJ mice)): -22%

IC50 (MAPK14 (human)): 894 nM
SMILES: COC(=O)c1c(-c2ccncc2)c(-c2ccc(F)cc2)c(C#CCCO)n1C
inhibition (MAPK14 (BALB/cJ mice)): 30%

IC50 (MAPK14 (human)): 21 nM
SMILES: COC(=O)c1c(-c2ccc(F)cc2)c(-c2ccncc2)c(Nc2cccc(NC(C)=O)c2)n1C

IC50 (MAPK14 (human)): 186 nM
SMILES: CCOC(=O)c1c(-c2ccc(F)cc2)c(-c2ccncc2)c(CCCO)n1C

IC50 (MAPK14 (human)): 1690 nM
SMILES: COC(=O)c1c(-c2ccc(F)cc2)c(-c2ccncc2)c(NCCNC(C)=O)n1C

IC50 (MAPK14 (human)): 1390 nM
SMILES: COC(=O)c1c(-c2ccc(F)cc2)c(-c2ccncc2)c(NCCN2CCCC2)n1C

IC50 (MAPK14 (human)): 852 nM
SMILES: CN(C)CCn1cc(-c2ccncc2)c(-c2ccc(F)cc2)c1CO
inhibition (MAPK14 (BALB/cJ mice)): 20%

IC50 (MAPK14 (human)): 3510 nM
SMILES: COC(=O)c1c(-c2ccncc2)c(-c2ccc(F)cc2)c(N(C)CCN2CCOCC2)n1C

IC50 (MAPK14 (human)): 692 nM
SMILES: COC(=O)c1c(-c2ccc(F)cc2)c(-c2ccncc2)cn1CCO

IC50 (MAPK14 (human)): 125 nM
SMILES: CCOC(=O)c1c(-c2ccc(F)cc2)c(-c2ccncc2)cn1C

IC50 (MAPK14 (human)): 171 nM
SMILES: Cn1cc(-c2ccncc2)c(-c2ccc(F)cc2)c1C#N

IC50 (MAPK14 (human)): 183 nM
SMILES: COC(=O)c1c(-c2ccc(F)cc2)c(-c2ccncc2)c(N(C)CCN2CCSCC2)n1C

IC50 (MAPK14 (human)): 69 nM
SMILES: COC(=O)c1c(-c2ccc(F)cc2)c(-c2ccncc2)c(NCCN2CCSCC2)n1C

IC50 (MAPK14 (human)): 901 nM
SMILES: CCCN1CCN(c2c(-c3ccncc3)c(-c3ccc(F)cc3)c(C(=O)OC)n2C)CC1

IC50 (MAPK14 (human)): 86 nM
SMILES: CCOC(=O)c1c(-c2ccc(F)cc2)c(-c2ccncc2)c(Br)n1C

IC50 (MAPK14 (human)): 105 nM
SMILES: CCn1c(C(=O)OC)c(-c2ccc(F)cc2)c(-c2ccncc2)c1N(C)CCN1CCOCC1

IC50 (MAPK14 (human)): 145 nM
SMILES: CCOC(=O)c1[nH]cc(-c2ccc(F)cc2)c1-c1ccncc1

IC50 (MAPK14 (human)): 589 nM
SMILES: CCCn1c(NCCN2CCOCC2)c(-c2ccncc2)c(-c2ccc(F)cc2)c1C(=O)OC

IC50 (MAPK14 (human)): 597 nM
SMILES: CC(=O)c1c(-c2ccc(F)cc2)c(-c2ccncc2)cn1C

IC50 (MAPK14 (human)): 120 nM
SMILES: CN(C)C(=O)c1c(-c2ccc(F)cc2)c(-c2ccncc2)c(N2CCNCC2)n1C

IC50 (MAPK14 (human)): 42 nM
SMILES: COC(=O)c1c(-c2ccc(F)cc2)c(-c2ccncc2)c(NCc2ccc(OC)cc2)n1C

IC50 (MAPK14 (human)): 7750 nM
SMILES: CCN1CCCC1CNc1c(-c2ccncc2)c(-c2ccc(F)cc2)c(C(=O)OC)n1C (configuration not stated)
